Results as given in patent publication US20250228239A1, “MOLECULES HAVING PESTICIDAL UTILITY, AND INTERMEDIATES, COMPOSITIONS, AND PROCESSES, RELATED THERETO” (priority 2024, published 2025).
Read-outs that look alike come from different tables or passages of the source.

Experiments:
[1] = test system: Beet Armyworm (Spodoptera exigua, LAPHEG); assay: Bioassays on Beet Armyworm (BAW), 128-well diet tray assay; type: in vivo; conditions: Spodoptera exigua, read-out: BAW
Method in brief: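 Mortality of second-instar larvae (1–5/well) on artificial diet treated with 50 μg/cm^2 compound, read after 5–7 days at 25° C.; values are means of eight wells.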

[2] = test system: Cabbage Looper (Trichoplusia ni, TRIPNI); assay: Bioassays on Cabbage Looper (CL), 128-well diet tray assay; type: in vivo; conditions: Trichoplusia ni, read-out: CL
Method in brief: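 Each of eight wells receives artificial diet treated at 50 μg/cm^2 with the test molecule, then one to five second-instar larvae. Incubation runs five to seven days at 25° C with a 14:10 light-dark cycle under vented covers. Mortality is scored per well as a percentage and averaged.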

[3] = Table ABC: Biological Results, species BAW
[4] = Table ABC: Biological Results, species CL

| Compound | pest or weed control at 50 µg/cm2 ([1]; Beet Armyworm, rating class) [%] | pest or weed control at 50 µg/cm2 ([2]; Cabbage Looper, rating class) [%] | pest or weed control at 50 µg/cm2 [1, 3] [%] | pest or weed control at 50 µg/cm2 [2, 4] [%] |
| --- | --- | --- | --- | --- |
| O=C(Nc1c(F)ccc(NC(=O)C(F)(F)F)c1F)c1cc(NC(=O)[C@H]2[C@H](c3ccc(Cl)c(Cl)c3)C2(Cl)Cl)ccc1Cl [F1537, 2-Chloro-5-((1R,3R)-2,2-dichloro-3-(3,4-dichlorophenyl)cyclopropane-1-carboxamido)-N-(2,6-difluoro-3-(2,2,2-trifluoroacetamido)phenyl)benzamide] | 50 to 100 | 50 to 100 | – | – |
| O=C(Nc1cc(F)c(NC(=O)C(F)F)c(F)c1)c1cc(NC(=O)[C@H]2[C@H](c3ccc(Cl)c(Cl)c3)C2(Cl)Cl)ccc1Cl (relative stereo) [F1122, trans-2-Chloro-5-(2,2-dichloro-3-(3,4-dichlorophenyl)cyclopropane-1-carboxamido)-N-(4-(2,2-difluoroacetamido)-3,5-difluorophenyl)benzamide] | – | – | 50 to 100 | 50 to 100 |
| Cc1cc(NC(=O)[C@H]2[C@H](c3ccc(Cl)c(Cl)c3)C2(Cl)Cl)cc(C(=O)Nc2c(F)ccc(NC(=O)C(F)(F)F)c2F)c1Cl [F1430, 2-Chloro-5-((1R,3R)-2,2-dichloro-3-(3,4-dichlorophenyl)cyclopropane-1-carboxamido)-N-(2,6-difluoro-3-(2,2,2-trifluoroacetamido)phenyl)-3-methylbenzamide] | 50 to 100 | 50 to 100 | – | – |
| O=C(Nc1c(F)ccc(NC(=O)C(F)(F)F)c1F)c1cc(NC(=O)[C@H]2[C@H](c3cc(Cl)c(Cl)c(Cl)c3)C2(Cl)Cl)cc(F)c1Cl [F1342, 2-Chloro-5-((1R,3R)-2,2-dichloro-3-(3,4,5-trichlorophenyl)cyclopropane-1-carboxamido)-N-(2,6-difluoro-3-(2,2,2-trifluoroacetamido)phenyl)-3-fluorobenzamide] | – | – | 50 to 100 | 50 to 100 |
| CC(=O)Nc1c(F)ccc(NC(=O)c2cc(NC(=O)[C@H]3[C@H](c4cc(Cl)c(Cl)c(Cl)c4)C3(Cl)Cl)cc(F)c2F)c1F [F1433, N-(3-Acetamido-2,4-difluorophenyl)-5-((1R,3R)-2,2-dichloro-3-(3,4,5-trichlorophenyl)cyclopropane-1-carboxamido)-2,3-difluorobenzamide] | 50 to 100 | 50 to 100 | – | – |
| Cc1cc(NCCc2ccccc2)ccc1NC(=O)c1cc(NC(=O)[C@H]2[C@H](c3cc(Cl)cc(Cl)c3)C2(Cl)Cl)ccc1Cl (relative stereo) [F1177, trans-2-Chloro-5-(2,2-dichloro-3-(3,5-dichlorophenyl)cyclopropane-1-carboxamido)-N-(2-methyl-4-(phenethylamino)phenyl)benzamide] | – | – | 50 to 100 | 50 to 100 |
| Cc1cc(NC(=O)C(Cl)(Cl)Cl)ccc1NC(=O)c1cc(NC(=O)[C@H]2[C@H](c3ccc(Cl)c(Cl)c3)C2(Cl)Cl)ccc1Cl (relative stereo) [F1060, trans-2-Chloro-5-(2,2-dichloro-3-(3,4-dichlorophenyl)cyclopropane-1-carboxamido)-N-(2-methyl-4-(2,2,2-trichloroacetamido)phenyl)benzamide] | – | – | 50 to 100 | 50 to 100 |
| O=C(Nc1ccc(F)c(NC(=O)C(F)F)c1F)c1cc(NC(=O)[C@H]2[C@H](c3cc(Cl)cc(Cl)c3)C2(Cl)Cl)ccc1Cl [F1268, 2-Chloro-5-((1R,3R)-2,2-dichloro-3-(3,5-dichlorophenyl)cyclopropane-1-carboxamido)-N-(3-(2,2-difluoroacetamido)-2,4-difluorophenyl)benzamide] | – | – | 50 to 100 | 50 to 100 |
